According to US20210401730A1, “USE OF EXTRACTS OF AGAVE FOR A HAIR APPLICATION” (priority 2017, published 2021):
Where two headings read alike, the source gives them in different places.

Legend:
[1] = test system: human umbilical vein endothelial cells (HUVEC); assay: Formation of microtubules (pseudo-tubes) by endothelial cells on matrigel; assay type: cell-based; conditions: for Results in % (formation of pseudo-tubes): 6 hours, control medium = 100
Procedure: In this experiment, the cells are human umbilical vein endothelial cells (HUVEC) cultured in M200 medium (Invitrogen M200500) on matrigel (BD Biosciences 354234) for 6 hours. The cells are either in the medium (control medium) or treated by suramin (negative control) or treated by VEGF (positive control) or treated by Metlin® or Metlos® inulins (at 0.1%). After 6 hours of incubation, the pseudo-tubes formed are observed under the microscope and images are taken at random to be subsequently quantified (total surface of the network) by image analysis.

[2] = test system: EPCs (circulating endothelial progenitor cells) originating from human umbilical cord blood; assay: Migration of endothelial progenitor cells through insert membrane; assay type: cell-based; conditions: C+ medium + VEGF 10 ng/ml, 5 hours
Procedure: The study was carried out on EPCs (circulating endothelial progenitor cells) originating from human umbilical cord blood, cultured in EGM-2 medium (Endothelial Growth medium-2).
Before the treatment, the cells are starved in 0.2% EBM-2 medium of fetal calf serum (FCS). The cells are subsequently seeded in an insert containing EGM-2 medium with 0.2% FCS, immersed in a well containing the treatment: either EGM-2 medium 0.2% FCS (negative control), or EGM-2 medium 0.2% FCS plus VEGF at 10 ng/ml (positive control), or EGM-2 medium 0.2% FCS plus the Metlin® or Metlos® inulins at 0.5% or 1%. After 5 hours of incubation, the cells inside the inserts are eliminated and those that have migrated to the other side of the insert membrane are fixed with 4% paraformaldehyde for 10 min. The cells that have migrated are subsequently counted.

Compound | Number of branchings ([1]; C− 20 μM, 6 hours of incubation) | Results in % (formation of pseudo-tubes) ([1]; C− 20 μM) [%] | Number of branchings [1] | Results in % (formation of pseudo-tubes) ([1]; C+ 50 ng/ml) [%] | Number of cells (migrated) [2] | Results relative to C− [2] [%]
Cc1ccc(C(=O)Nc2ccc(S(=O)(=O)O)c3cc(S(=O)(=O)O)cc(S(=O)(=O)O)c23)cc1NC(=O)c1cccc(NC(=O)Nc2cccc(C(=O)Nc3cc(C(=O)Nc4ccc(S(=O)(=O)O)c5cc(S(=O)(=O)O)cc(S(=O)(=O)O)c45)ccc3C)c2)c1 [Suramin, suramin] | 0 | 0 | – | – | – | –
VEGF | – | – | 18 | 140 | 417 | 181
